{
  "source": "patent US20250082781A1",
  "about": "“METHODS OF LOWERING BLOOD GLUCOSE AND TREATING TYPE 2 DIABETES BY ACTIVATION OF PDE4D3” (Salk Institute for Biological Studies, priority 2021, published 2025)",
  "key": {"[1]": {"tested_on": "hepatic gluconeogenic intermediates", "experiment": "Hepatic metabolite levels (targeted metabolomics, kits)", "assay_type": "in vivo, mouse", "description": "Polar metabolites were extracted and analyzed using a previously reported method (Yuan et al., 2012). Briefly, ob/ob mice were sacrificed by cervical dislocation. Liver pieces (50-100 mg) were snap frozen in liquid nitrogen. 1 ml LC-MS grade 80% methanol chilled at −80° C. was added per 100 mg tissue on dry ice. Samples were homogenized by TissueLyzer and lysates were incubated on dry ice for 30 minutes and centrifuged at 20000 g for 10 minutes. Clarified supernatants were transferred to new tubes. Pellets were extracted again and supernatants were combined. After drying the supernatant under nitrogen gas, extracts were dissolved in H2O (40 μL) and 10 μL were subjected to liquid chromatography mass spectrometry (LC-MS). Polar metabolites were measured by LC-MS using a TSQ Quantiva instrument fitted with a Luna NH2 HPLC column (5.0 μm; 4.6 mm×50 mm, Phenomenex). The following LC solvents were used: buffer A, 95:5 H2O/ACN, 20 mM ammonium hydroxide, 20 mM ammonium acetate; buffer B, 100% ACN. A typical LC run was 23 minutes long with a flow rate of 0.4 ml min-1 and consisted of the following steps: 85 to 30% buffer B over 3 minutes, 30 to 2% buffer B over 9 minutes, 2% buffer B for 3 minutes, 2 to 85% buffer B over 1 minute, and 85% buffer B for 7 minutes. MS analyses were performed using electrospray ionization (ESI) in negative or positive ion mode depending on the metabolites being analyzed. Negative mode and positive mode source parameters were the following: spray voltage 3.5 kV, ion transfer tube temperature of 325° C., and a vaporizer temperature of 275° C.\nLiver samples were prepared from HFD-fed mice as described in Pcx activity assay. After determining Pcx activity from sample homogenates, the remaining supernatant was de-proteinated by perchloric acid (PCA)-KOH method using a commercial kit. De-proteinated samples were used to quantify hepatic metabolites using the commercial kits. Hepatic metabolites concentration was normalized to protein concentration and corrected for the loss of volume due to de-proteinization."}, "[2]": {"tested_on": "cAMP", "experiment": "cAMP levels in 3T3-L1 adipocytes (ELISA, biosensor, CRE-Luc reporter)", "assay_type": "cell-based", "description": "3T3-L1 cells were transduced with viral particles ([…]) in 24 well plates. Media was replaced after overnight incubation. 3-4 days after AAV infection, cells were treated as described for lipolysis assay. For cAMP analysis by biosensors, Downward Green cADDis cAMP Sensor (D0200G) and control mNeon Green (F0500G) produced in BacMam system was purchased from Montana Molecular. Brightfield and fluorescence images were taken every 10-20 min in I IncuCyte® Live-cell analysis system (Sartorius) and images were analyzed by IncuCyte® Analysis Software. High-resolution live cell imaging was performed with LSM 880 Airyscan microscope at 40× objective."}, "[3]": {"tested_on": "hepatic β-oxidation", "experiment": "β-oxidation assay of hepatic mitochondria", "assay_type": "in vivo, mouse", "details": "ob/ob mice 14 h after FGF1 injection", "description": "FIGS. 8A-8E: FGF1 decreases hepatic glucose production via controlling metabolic flux to gluconeogenesis. (FIG. 8A) Pyruvate tolerance test (PTT) (left panel) and glycerol tolerance test (Glycerol TT) of overnight-fasted DIO mice 2 h after vehicle (n=6) or FGF1 (n=7) injection (0.5 mg/kg). Data are represented as mean±SEM (*p<0.05, **p<0.01, ***p<0.001). (FIG. 8B) Schematic diagram showing the steps in hepatic glucose production. […] (FIG. 8C) Relative levels of the key metabolites involved in the citric acid cycle as measured by targeted metabolomic profiling. Data are represented as mean±SEM (vehicle n=5; FGF1 n=6). (FIG. 8D) Pyruvate carboxylase, PEPCK and G6Pase levels in livers of overnight fasted ob/ob mice 2 hours after injection of vehicle or FGF1, as measured by Western blot. Protein levels are normalized to actin for quantification (n=6/arm). (FIG. 8E) β-oxidation assay of hepatic mitochondria from ob/ob mice 14 h after Vehicle (PBS) or FGF1 injection. Mitochondria were incubated with BSA-conjugated ^14C palmitate, and released ^14C CO2 was measured by scintillation counting. Data are represented as mean±SEM (n=5/arm)."}, "[4]": {"details": "livers of ob/ob mice 2 h after FGF1 injection"}},
  "data": [
    {"substance": "FGF1: Recombinant fibroblast growth factor 1 protein, dissolved in PBS, injected subcutaneously", "values": [
      {"measurement": "hepatic gluconeogenic substrates", "setting": "[1]; HFD-fed adR1KO mice, 6 h after FGF1 0.5 mg/kg", "result": "insensitive to FGF1 treatment"},
      {"measurement": "reductions in hepatic gluconeogenic substrates", "setting": "[1]; HFD-fed adR1WT mice, 6 h after FGF1 0.5 mg/kg", "result": "largely recapitulated"},
      {"measurement": "hepatic TCA cycle metabolites", "setting": "[1]; [4]", "result": "not affected"},
      {"measurement": "hepatic acetyl-CoA levels", "setting": "[1]; [4]", "result": "decreased"},
      {"measurement": "hepatic intermediates downstream of pyruvate (G6P, F6P, PG, PEP, OAA)", "setting": "[1]; [4]", "result": "reduced"},
      {"measurement": "isoproterenol-induced increases in cAMP and cAMP/PKA signaling", "setting": "[2]; FGF1 pretreatment, ISO 100 nM", "result": "attenuated isoproterenol-induced increases in cAMP"},
      {"measurement": "FGF1-induced attenuation of isoproterenol-driven increase in cAMP with PDE4 inhibitor", "setting": "[2]; live 3T3-L1 cells, cAMP biosensor, roflumilast 2 μM", "result": "lost"},
      {"measurement": "hepatic β-oxidation", "setting": "[3]", "result": "absence of any change"}
    ]}
  ]
}
